From patent publication EP4745137A1 (Gluetacs Therapeutics (Shanghai) Co., Ltd., priority 2023, dated 2025)

Columns and labels:
SW620 = experiment: Tumor cell proliferation inhibition (CellTiter-Meiluncell Luminescent Cell Viability Assay), SW620; settings: Homo sapiens, SW-620, 96 h, read-out: inhibitory activity (IC50, nM) against tumor cells proliferation, SW620
IKZF3 = molecular target: T1, IKZF3 (Homo sapiens, UniProt Q96SW2+Q9UKT9); experiment: Western-blot assay of substrate protein degradation in hPBMCs, IKZF3; format: cell-based; settings: 24 hours of compound treatment, compounds tested at 50 nM and 500 nM (concentration of the table not stated)
T1 construct: endogenous in cells; host or cells: hPBMCs (Milecell Biotechnologies)
T1 sequence (Q9UKT9 whole entry): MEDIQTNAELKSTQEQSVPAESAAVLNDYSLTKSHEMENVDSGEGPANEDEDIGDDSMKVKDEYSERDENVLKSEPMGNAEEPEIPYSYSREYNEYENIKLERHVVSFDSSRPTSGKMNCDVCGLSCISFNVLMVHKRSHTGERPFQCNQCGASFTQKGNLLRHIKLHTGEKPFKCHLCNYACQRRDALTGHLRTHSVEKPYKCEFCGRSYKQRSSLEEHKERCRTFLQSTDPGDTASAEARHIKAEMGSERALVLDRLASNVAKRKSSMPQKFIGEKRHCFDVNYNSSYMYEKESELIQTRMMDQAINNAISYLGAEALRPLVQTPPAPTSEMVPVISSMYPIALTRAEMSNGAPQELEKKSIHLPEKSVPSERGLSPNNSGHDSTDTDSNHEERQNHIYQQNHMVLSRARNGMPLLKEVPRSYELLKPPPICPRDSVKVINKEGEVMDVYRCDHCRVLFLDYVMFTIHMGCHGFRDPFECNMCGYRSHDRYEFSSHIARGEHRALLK
T1 sequence (Q96SW2 whole entry): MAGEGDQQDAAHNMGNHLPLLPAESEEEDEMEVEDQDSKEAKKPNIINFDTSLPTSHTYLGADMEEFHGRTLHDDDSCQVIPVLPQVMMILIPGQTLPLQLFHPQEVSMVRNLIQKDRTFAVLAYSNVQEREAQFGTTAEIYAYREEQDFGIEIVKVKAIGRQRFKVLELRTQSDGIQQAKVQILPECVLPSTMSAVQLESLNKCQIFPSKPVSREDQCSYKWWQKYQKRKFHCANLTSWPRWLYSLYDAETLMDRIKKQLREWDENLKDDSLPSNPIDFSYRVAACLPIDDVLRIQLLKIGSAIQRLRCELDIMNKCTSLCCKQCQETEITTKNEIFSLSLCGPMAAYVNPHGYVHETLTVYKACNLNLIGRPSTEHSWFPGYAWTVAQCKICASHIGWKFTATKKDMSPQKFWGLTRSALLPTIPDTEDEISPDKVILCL
T1 sequence (Q16531 whole entry partner): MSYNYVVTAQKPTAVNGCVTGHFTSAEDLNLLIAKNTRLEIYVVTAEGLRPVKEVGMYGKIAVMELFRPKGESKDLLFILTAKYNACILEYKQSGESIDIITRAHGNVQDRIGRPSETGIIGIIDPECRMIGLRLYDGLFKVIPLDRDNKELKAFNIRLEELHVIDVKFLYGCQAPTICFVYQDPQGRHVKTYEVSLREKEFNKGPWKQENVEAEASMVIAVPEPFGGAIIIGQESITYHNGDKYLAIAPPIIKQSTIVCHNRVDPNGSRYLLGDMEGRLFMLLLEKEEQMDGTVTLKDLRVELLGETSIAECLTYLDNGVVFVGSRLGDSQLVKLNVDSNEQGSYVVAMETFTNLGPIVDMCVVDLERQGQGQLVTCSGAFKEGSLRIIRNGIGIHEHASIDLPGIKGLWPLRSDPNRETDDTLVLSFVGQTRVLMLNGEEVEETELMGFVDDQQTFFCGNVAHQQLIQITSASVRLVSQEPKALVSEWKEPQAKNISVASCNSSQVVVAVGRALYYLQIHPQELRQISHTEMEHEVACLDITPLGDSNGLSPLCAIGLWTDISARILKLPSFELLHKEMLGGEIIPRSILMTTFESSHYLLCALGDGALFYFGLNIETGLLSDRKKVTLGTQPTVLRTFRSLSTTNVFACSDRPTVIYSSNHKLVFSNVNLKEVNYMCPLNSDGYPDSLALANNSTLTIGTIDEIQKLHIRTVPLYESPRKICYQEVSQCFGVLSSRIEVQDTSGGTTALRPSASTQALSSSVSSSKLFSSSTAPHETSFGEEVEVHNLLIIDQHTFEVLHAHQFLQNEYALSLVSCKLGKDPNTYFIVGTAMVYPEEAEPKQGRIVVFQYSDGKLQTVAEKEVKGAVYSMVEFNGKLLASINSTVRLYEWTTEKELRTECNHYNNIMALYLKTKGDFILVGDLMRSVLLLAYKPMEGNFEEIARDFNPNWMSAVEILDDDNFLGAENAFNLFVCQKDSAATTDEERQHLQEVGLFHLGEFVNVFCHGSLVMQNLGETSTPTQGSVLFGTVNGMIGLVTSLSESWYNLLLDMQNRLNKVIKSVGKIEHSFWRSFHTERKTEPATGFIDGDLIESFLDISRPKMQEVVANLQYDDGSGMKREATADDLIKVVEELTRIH

WEE1 = molecular target: T2, WEE1 (Homo sapiens, UniProt P30291+Q96SW2); experiment: Western-blot assay of substrate protein degradation in hPBMCs, WEE1; format: cell-based; settings: 24 hours of compound treatment, compounds tested at 50 nM and 500 nM (concentration of the table not stated)
T2 construct: endogenous in cells; host or cells: hPBMCs (Milecell Biotechnologies)
T2 sequence (P30291 whole entry): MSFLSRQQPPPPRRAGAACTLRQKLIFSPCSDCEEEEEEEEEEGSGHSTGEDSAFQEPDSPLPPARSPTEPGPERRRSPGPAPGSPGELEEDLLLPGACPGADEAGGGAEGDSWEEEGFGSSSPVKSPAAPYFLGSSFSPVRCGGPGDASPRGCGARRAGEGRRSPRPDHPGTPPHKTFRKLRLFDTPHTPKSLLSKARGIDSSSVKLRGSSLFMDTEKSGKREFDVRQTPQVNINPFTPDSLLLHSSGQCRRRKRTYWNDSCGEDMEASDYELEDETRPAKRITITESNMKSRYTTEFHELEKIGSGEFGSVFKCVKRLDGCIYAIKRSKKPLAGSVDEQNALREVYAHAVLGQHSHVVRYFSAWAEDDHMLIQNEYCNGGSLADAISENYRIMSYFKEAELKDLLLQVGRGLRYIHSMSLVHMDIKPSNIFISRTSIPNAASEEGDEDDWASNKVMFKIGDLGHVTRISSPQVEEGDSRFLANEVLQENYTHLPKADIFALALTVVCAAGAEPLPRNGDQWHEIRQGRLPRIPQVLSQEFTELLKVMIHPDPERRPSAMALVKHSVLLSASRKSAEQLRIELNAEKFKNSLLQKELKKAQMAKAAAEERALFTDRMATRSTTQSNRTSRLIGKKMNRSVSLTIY
T2 sequence (Q96SW2 whole entry): as the sequence (Q96SW2 whole entry) above
T2 sequence (Q16531 whole entry partner): as the sequence (Q16531 whole entry partner) above

GSPT1 = molecular target: T3, GSPT1 (Homo sapiens, UniProt P15170+Q96SW2); experiment: Western-blot assay of substrate protein degradation in hPBMCs, GSPT1; format: cell-based; settings: 24 hours of compound treatment, compounds tested at 50 nM and 500 nM (concentration of the table not stated)
T3 construct: endogenous in cells; host or cells: hPBMCs (Milecell Biotechnologies)

IKZF1 = molecular target: T4, IKZF1 (Homo sapiens, UniProt Q13422+Q96SW2); experiment: Western-blot assay of substrate protein degradation in hPBMCs, IKZF1; format: cell-based; settings: 24 hours of compound treatment, compounds tested at 50 nM and 500 nM (concentration of the table not stated)
T4 construct: endogenous in cells; host or cells: hPBMCs (Milecell Biotechnologies)
T4 sequence (Q13422 whole entry): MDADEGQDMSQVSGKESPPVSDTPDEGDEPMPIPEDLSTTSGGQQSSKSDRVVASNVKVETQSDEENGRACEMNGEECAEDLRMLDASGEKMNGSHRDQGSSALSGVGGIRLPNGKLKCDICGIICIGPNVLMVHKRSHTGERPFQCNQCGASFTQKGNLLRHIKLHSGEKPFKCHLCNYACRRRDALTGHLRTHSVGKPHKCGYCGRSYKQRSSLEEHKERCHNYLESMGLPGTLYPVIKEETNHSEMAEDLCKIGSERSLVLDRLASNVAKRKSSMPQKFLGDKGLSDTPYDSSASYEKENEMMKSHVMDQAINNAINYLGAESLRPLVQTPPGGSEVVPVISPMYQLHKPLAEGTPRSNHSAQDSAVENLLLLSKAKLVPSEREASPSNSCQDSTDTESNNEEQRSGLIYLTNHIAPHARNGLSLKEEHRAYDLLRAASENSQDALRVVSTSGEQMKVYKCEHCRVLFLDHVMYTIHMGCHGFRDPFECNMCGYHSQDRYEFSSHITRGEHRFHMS
T4 sequence (Q96SW2 whole entry): as the sequence (Q96SW2 whole entry) above
T4 sequence (Q16531 whole entry partner): as the sequence (Q16531 whole entry partner) above

Jurkat = experiment: Tumor cell proliferation inhibition (CellTiter-Meiluncell Luminescent Cell Viability Assay), Jurkat; settings: Homo sapiens, 96 h, read-out: inhibitory activity (IC50, nM) against tumor cells proliferation, Jurkat
MM.1R = experiment: Tumor cell proliferation inhibition (CellTiter-Meiluncell Luminescent Cell Viability Assay), MM.1R; settings: Homo sapiens, 96 h, read-out: inhibitory activity (IC50, nM) against tumor cells proliferation, MM.1R
IKZF2 = molecular target: T5, IKZF2 (Homo sapiens, UniProt Q96SW2+Q9UKS7); experiment: Western-blot assay of substrate protein degradation in hPBMCs, IKZF2; format: cell-based; settings: 24 hours of compound treatment, compounds tested at 50 nM and 500 nM (concentration of the table not stated)
T5 construct: endogenous in cells; host or cells: hPBMCs (Milecell Biotechnologies)
T5 sequence (Q9UKS7 whole entry): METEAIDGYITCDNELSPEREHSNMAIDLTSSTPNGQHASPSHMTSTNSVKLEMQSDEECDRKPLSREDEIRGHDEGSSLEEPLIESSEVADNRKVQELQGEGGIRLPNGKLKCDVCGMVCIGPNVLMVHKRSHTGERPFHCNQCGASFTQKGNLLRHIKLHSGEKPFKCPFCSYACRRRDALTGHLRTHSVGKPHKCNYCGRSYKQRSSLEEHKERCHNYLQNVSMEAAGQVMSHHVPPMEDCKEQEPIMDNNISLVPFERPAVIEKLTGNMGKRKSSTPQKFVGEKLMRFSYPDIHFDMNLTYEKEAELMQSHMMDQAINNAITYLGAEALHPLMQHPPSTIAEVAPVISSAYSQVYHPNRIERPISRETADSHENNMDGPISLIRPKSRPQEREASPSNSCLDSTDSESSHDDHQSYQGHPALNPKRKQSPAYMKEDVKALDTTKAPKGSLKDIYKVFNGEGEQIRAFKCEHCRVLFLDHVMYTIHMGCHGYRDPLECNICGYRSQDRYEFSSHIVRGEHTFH
T5 sequence (Q96SW2 whole entry): as the sequence (Q96SW2 whole entry) above
T5 sequence (Q16531 whole entry partner): as the sequence (Q16531 whole entry partner) above

CK1α = molecular target: T6, CK1α (Homo sapiens, UniProt P48729+Q96SW2); experiment: Western-blot assay of substrate protein degradation in hPBMCs, CK1α; format: cell-based; settings: 24 hours of compound treatment, compounds tested at 50 nM and 500 nM (concentration of the table not stated)
T6 construct: endogenous in cells; host or cells: hPBMCs (Milecell Biotechnologies)
T6 sequence (P48729 whole entry): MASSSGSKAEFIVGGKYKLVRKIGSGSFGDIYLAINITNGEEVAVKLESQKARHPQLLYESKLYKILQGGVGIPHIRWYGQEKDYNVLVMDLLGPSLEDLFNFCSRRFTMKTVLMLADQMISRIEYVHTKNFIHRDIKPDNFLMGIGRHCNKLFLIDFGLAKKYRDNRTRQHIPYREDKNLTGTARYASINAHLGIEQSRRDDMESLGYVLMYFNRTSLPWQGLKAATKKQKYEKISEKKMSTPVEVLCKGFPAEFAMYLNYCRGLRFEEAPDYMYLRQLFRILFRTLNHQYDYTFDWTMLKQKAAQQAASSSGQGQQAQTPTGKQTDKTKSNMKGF
T6 sequence (Q96SW2 whole entry): as the sequence (Q96SW2 whole entry) above
T6 sequence (Q16531 whole entry partner): as the sequence (Q16531 whole entry partner) above

[1] = molecular target: T7, human Cereblon WT GST-tagged protein (Homo sapiens, UniProt Q96SW2); experiment: CRBN-binding affinity by HTRF (CEREBLON BINDING kit); settings: HTRF inhibitory activity, CEREBLON BINDING kit; read-out: HTRF IC50
T7 construct: purchased CISBIO 64BDCRBNPEH
T7 sequence (Q96SW2 whole entry): as the sequence (Q96SW2 whole entry) above

Vcap = experiment: Tumor cell proliferation inhibition (CellTiter-Meiluncell Luminescent Cell Viability Assay), Vcap; settings: Homo sapiens, 96 h, read-out: inhibitory activity (IC50, nM) against tumor cells proliferation, Vcap
CAL-62 = experiment: Tumor cell proliferation inhibition (CellTiter-Meiluncell Luminescent Cell Viability Assay), CAL-62; settings: Homo sapiens, CAL-62, 96 h, read-out: inhibitory activity (IC50, nM) against tumor cells proliferation, CAL-62
CCRF-CEM = experiment: Tumor cell proliferation inhibition (CellTiter-Meiluncell Luminescent Cell Viability Assay), CCRF-CEM; settings: Homo sapiens, 96 h, read-out: inhibitory activity (IC50, nM) against tumor cells proliferation, CCRF-CEM
[2] = test system: Human acute T lymphocytic leukemia cells (Molt-4); experiment: Tumor cell proliferation inhibition (CellTiter-Meiluncell Luminescent Cell Viability Assay), Molt-4; settings: MOLT-4, 96 h, read-out: inhibitory activity (IC50, nM) against tumor cells proliferation, Molt 4
NCI-H1975 = experiment: Tumor cell proliferation inhibition (CellTiter-Meiluncell Luminescent Cell Viability Assay), NCI-H1975; settings: Homo sapiens, NCI-H1975, 96 h, read-out: inhibitory activity (IC50, nM) against tumor cells proliferation, H1975
MGC803 = experiment: Tumor cell proliferation inhibition (CellTiter-Meiluncell Luminescent Cell Viability Assay), MGC803; settings: Homo sapiens, MGC-803, 96 h, read-out: inhibitory activity (IC50, nM) against tumor cells proliferation, MGC803

IC50 (SW620) [nM]	IC50 (Jurkat) [nM]	IC50 (MM.1R) [nM]	IC50 [1] [nM]	IC50 (Vcap) [nM]	IC50 (CAL-62) [nM]	IC50 (CCRF-CEM) [nM]	IC50 [2] [nM]	IC50 (NCI-H1975) [nM]	IC50 (MGC803) [nM]	Compound	IKZF3 substrate protein remaining % (IKZF3)	Weel substrate protein remaining % (WEE1)	GSPT1 substrate protein remaining % (GSPT1)	IKZF 1 substrate protein remaining % (IKZF1)	IKZF2 substrate protein remaining % (IKZF2)	CK1a substrate protein remaining % (CK1α)
100 to 500	10 to 50	10 to 50	500 to 1000	50 to 100	10 to 50	10 to 50	10 to 50	–	–	Cc1cscc1C1CCN(Cc2ccc3c(c2)CN(C2CCC(=O)NC2=O)C3=O)CC1 (stereo not shown) [GT-04504, 3-(5-((4-(4-methylthiophen-3-yl)piperidin-1-yl)methyl)-1-oxoisoindolin-2-yl)piperidine-2,6-dione]	A (0% ≤ substrate protein remaining % ≤ 80%)	A (0% ≤ substrate protein remaining % ≤ 80%)	A (0% ≤ substrate protein remaining % ≤ 80%)	A (0% ≤ substrate protein remaining % ≤ 80%)	A (0% ≤ substrate protein remaining % ≤ 80%)	B (80%< substrate protein remaining %≤ 100%)
500 to 1000	10 to 50	50 to 100	500 to 1000	100 to 500	50 to 100	10 to 50	10 to 50	–	–	O=C1CCC(N2Cc3cc(CN4CCN(c5cccc(F)n5)CC4)ccc3C2=O)C(=O)N1 (stereo not shown) [GT-04498, 3-(5-((4-(6-fluoropyridin-2-yl)piperazin-1-yl)methyl)-1-oxoisoindolin-2-yl)piperidine-2,6-dione]	A (0% ≤ substrate protein remaining % ≤ 80%)	A (0% ≤ substrate protein remaining % ≤ 80%)	A (0% ≤ substrate protein remaining % ≤ 80%)	A (0% ≤ substrate protein remaining % ≤ 80%)	A (0% ≤ substrate protein remaining % ≤ 80%)	A (0% ≤ substrate protein remaining % ≤ 80%)
100 to 500	10 to 50	10 to 50	500 to 1000	50 to 100	10 to 50	10 to 50	10 to 50	500 to 1000	–	O=C1CCC(N2Cc3cc(CN4CCN(c5ccc(F)cc5F)CC4)ccc3C2=O)C(=O)N1 (stereo not shown) [GT-04438, 3-(5-((4-(2,4-difluorophenyl)piperazin-1-yl)methyl)-1-oxoisoindolin-2-yl)piperidine-2,6-dione]	A (0% ≤ substrate protein remaining % ≤ 80%)	A (0% ≤ substrate protein remaining % ≤ 80%)	A (0% ≤ substrate protein remaining % ≤ 80%)	A (0% ≤ substrate protein remaining % ≤ 80%)	A (0% ≤ substrate protein remaining % ≤ 80%)	A (0% ≤ substrate protein remaining % ≤ 80%)
500 to 1000	10 to 50	10 to 50	500 to 1000	50 to 100	10 to 50	5 to 10	10 to 50	–	500 to 1000	O=C1CCC(N2Cc3cc(CN4CCC(c5ccc(Cl)cc5)CC4)ccc3C2=O)C(=O)N1 (stereo not shown) [GT-04469, 3-(5-((4-(4-chlorophenyl)piperidin-1-yl)methyl)-1-oxoisoindolin-2-yl)piperidine-2,6-dione]	A (0% ≤ substrate protein remaining % ≤ 80%)	A (0% ≤ substrate protein remaining % ≤ 80%)	A (0% ≤ substrate protein remaining % ≤ 80%)	A (0% ≤ substrate protein remaining % ≤ 80%)	A (0% ≤ substrate protein remaining % ≤ 80%)	A (0% ≤ substrate protein remaining % ≤ 80%)
